# Literature values in patent publication US20250352523A1, “TRIPLE PHARMACEUTICAL COMPOSITION FOR PROTEINACEOUS INFECTION” (priority 2024, published 2025).
# Legend:
# AD = settings: in vivo
# patients with AD = settings: human, in vivo
# AD patients = settings: twelve months' treatment, versus placebo
Structure (SMILES),beneficial effects on AD (AD),other results
CC(=O)Nc1ccc(O)cc1 [Acetaminophen],not found to have beneficial effects,–
COc1ccc2cc([C@H](C)C(=O)O)ccc2c1 [Naproxen],–,cognitive function in patients with AD (patients with AD): did not improve cognitive function
CC(=O)Oc1ccccc1C(=O)O [aspirin],not found to have beneficial effects,–
CO[C@H]1/C=C/O[C@@]2(C)Oc3c(C)c(O)c4c(O)c(c(/C=N/N5CCN(C)CC5)c(O)c4c3C2=O)NC(=O)/C(C)=C\C=C\[C@H](C)[C@H](O)[C@@H](C)[C@@H](O)[C@@H](C)[C@H](OC(C)=O)[C@@H]1C [rifampin],–,effects on cognition or function in AD (AD patients): no beneficial effects
